This is an account of results in paper PMC7758436 (Frontiers in Veterinary Science, 2020).

Like-named read-outs stand apart in the source and are kept apart here.

Series [1] concerns promastigote forms of L. (L.) amazonensis. The series is described as follows: In vitro leishmanicidal activity, growth inhibition of promastigote forms (counting in Neubauer's chamber). The series is classed as cell-based, Leishmania (Leishmania) amazonensis. The following applies: value (95% CI). How it is done: (§1) L. (L.) amazonensis (IFLA/BR/67/PH8.) was maintained as promastigote forms in Roswell Park Memorial Institute medium (RPMI 1640 medium) (Gibco, Grand Island, NY, USA), supplemented with antibiotics (penicillin 10.000 UI/mL and streptomycin […]) (Cultilab, Campinas, BR), and 10% bovine fetal serum (FBS) (Cultilab), at 25°C. L. (L.) infantum (MHOM/BR/1972/LD) was maintained as promastigote forms in M199 medium (Gibco), supplemented with 10% FBS (Cultilab), antibiotics (Cultilab), 5% human urine and 0.25% hemin (Sigma-Aldrich) at 25°C, and amastigote forms were obtained from the spleen of golden hamsters after 60 to 70 days of infection ([21]). Peritoneal murine macrophages were obtained by washing the peritoneal cavity of BALB/c mice with RPMI 1640 medium (Gibco) after 72 h of the application of 5 mL of the sodium thioglycolate (Sigma-Aldrich) at 3%, and then were cultivated in RPMI 1640 medium (Gibco) supplemented with antibiotics and 10% FBS (Gibco), at 37°C in a 5% CO2 humidified incubator.
Initially, a screening was performed against promastigote forms of L. (L.) amanzonensis. […] […], and the leishmanicidal activity was determined by the inhibition of growth of the promastigote forms by counting the total number of live promastigote in Neubauer's chamber (Global Glass, São Paulo, BR) using an optical microscope (Nikon New York, USA). […] To evaluate the leishmanicidal activity against amastigote forms, peritoneal murine macrophages were seemed (2 × 10^5 cells per well) in 24-well plates on slide chambers and incubated at 37°C for 24 h. […] The slides were stained with Giemsa (Synth, Diadema, BR), analyzed using an optical microscopy (Nikon), and the parasite load was defined by the number of infected macrophages X number of intracellular amastigotes/number of total macrophages ([23]). Parasites cultured in medium with 0.1% were used as negative control and parasites cultured in medium with MA or AmpB were used as positive controls.

Series [2] has as its system amastigote forms of L. (L.) amazonensis. The series is described as follows: In vitro leishmanicidal activity against intracellular amastigote forms in peritoneal murine macrophages (Giemsa, parasite load). It is filed as cell-based. To be noted: Leishmania amazonensis, Macrophage, 48 h, value (95% CI). How it is done: as §1
(§2) Initially, a screening was performed against promastigote forms of L. (L.) amanzonensis. […] The slides were stained with Giemsa (Synth, Diadema, BR), analyzed using an optical microscopy (Nikon), and the parasite load was defined by the number of infected macrophages X number of intracellular amastigotes/number of total macrophages ([23]). […]

Series [3] in a line: In vitro hemolytic activity. To be noted: sheep. It is filed as cell-based, sheep. How it is done: (§3) Defibrinated sheep blood (Newprov, Pinhais, PR, BR) was diluted in 0.9% saline solution and a suspension at 3% of erythrocytes was transferred (100 μL) in 96-well plates. […] The hemolytic activity was determined in the cell supernatant by optical density reading at 415 nm (Libra S12–Biochrom–Cambridge, RU) Distilled water was used as a positive control, and 0.9% saline solution with 0.1% DMSO was used as negative control.

A short description of series [4]: In vitro cytotoxic activity, MTT assay. To be noted: BALB/c, mouse, 48 h, MTT, value (95% CI). The series is classed as cell-based, BALB/c mice. How it is done: as §1
(§4) The cells were incubated at 37°C in a 5% CO2 humidified incubator at 37°C during 48 h, and the cytotoxic activity was determined using MTT assay ([23]). Cells cultured in medium with 0.1% DMSO were used as negative control and cells cultured in medium with 25% DMSO were used as positive control.
On the technique in general: Tetrazolium assays rely on reduction of a dye to a coloured formazan, in cell work by metabolically active cells.

In series [5] the test system is amastigote forms of L. (L.) infantum. The series is described as follows: In vitro leishmanicidal activity against intracellular amastigote forms in peritoneal murine macrophages (Giemsa, parasite load). The series is classed as cell-based, Leishmania (Leishmania) infantum. To be noted: 48 h, read-out: IC50 L (L.) infantum Amastigote 48 h. How it is done:
as §1, §2

The next series concerns L. (L.) donovani. To be noted: 20 mg/kg of body weight per day, intraperitoneal, six consecutive days; vs untreated control; ref [11]; cited from earlier work.
Details of series [6]: method as in PMID 29698432. The following applies: ref [38]; cited from earlier work.
Series [7] relates to Peritoneal murine macrophages. Put plainly: In vitro cytotoxic activity, MTT assay. The series is classed as cell-based, BALB/c mice. The protocol: as §1, §4
For series [8] the following is noted: ref [11], cited from earlier work.
For series [9], the system named is promastigote forms of L. (L.) infantum. The series is described as follows: In vitro leishmanicidal activity, growth inhibition of promastigote forms (counting in Neubauer's chamber). It is filed as cell-based, Leishmania (Leishmania) infantum. How it is done:
as §1
Initially, a screening was performed against promastigote forms of L. (L.) amanzonensis. […] The plates were incubated at same conditions previously described during 48 h, and the leishmanicidal activity was determined by the inhibition of growth of the promastigote forms by counting the total number of live promastigote in Neubauer's chamber (Global Glass, São Paulo, BR) using an optical microscope (Nikon New York, USA). […] To evaluate the leishmanicidal activity against amastigote forms, peritoneal murine macrophages were seemed (2 × 10^5 cells per well) in 24-well plates on slide chambers and incubated at 37°C for 24 h. […] The slides were stained with Giemsa (Synth, Diadema, BR), analyzed using an optical microscopy (Nikon), and the parasite load was defined by the number of infected macrophages X number of intracellular amastigotes/number of total macrophages ([23]). Parasites cultured in medium with 0.1% were used as negative control and parasites cultured in medium with MA or AmpB were used as positive controls.

The next series has as its system L. (L.) infantum. The series is described as follows: In vivo leishmanicidal activity in L. (L.) infantum-infected hamsters (limiting dilution). The arrangement: species or system golden hamsters (Mesocricetus auratus). To be noted: for reduction of parasite burden in liver / reduction of parasite burden in spleen: intraperitoneal, eight consecutive days, vs negative control group; for survival rate / average body weight: infected hamsters; for survival rate: after the treatment (data not shown); for average body weight: among negative, LicoA and MA groups. How it is done: Male golden hamsters were infected by intraperitoneal route with 1.0 × 10^8 L. (L.) infantum amastigotes. Four weeks after infection, the animals were randomly separated in 4 groups of 6 animals each. […] Negative control group received the same number of injections of phosphate buffered saline (PBS) and animals from positive control group was treated with MA (Sanofi-Aventis) at dose 50 mg/kg of body weight during eight consecutive days by intraperitoneal route. Thirty five days after treatment the animals were sacrificed and the parasite burden was evaluated both in spleen and liver by limiting dilution method ([24]).

Another series has as its system amastigotes. To be noted: 2.5 μM, 72 h of incubation; ref [10], [11]; cited from earlier work.
In the next series the test system is erythrocytes. To be noted: after 24 h; ref [33]; cited from earlier work.
A further series relates to HFF cell. The following applies: ref [32]; cited from earlier work.
Series [10] can be described thus: Hepatotoxicity in no-infected hamsters, serum ALT and AST. To be noted: for serum levels of aminotransaminases (ALT, AST): no-infected hamsters, 15 days, vs negative control group. The series is classed as in vivo, golden hamsters (Mesocricetus auratus). The protocol: After this period, serum concentrations of alanine aminotransferase (ALT) and aspartate aminotransferase (AST) were determined using sets of commercial reagents (Labtest, Minas Gerais, Brazil). Negative control group received the same number of injections of PBS.

The test system of the next series is L. (L.) major. The following applies: 2.5 and 5 mg/kg of body weight, intraperitoneal, 7 days after infection during 39 days; ref [11]; cited from earlier work.
The subject of series [11] is Defibrinated sheep blood erythrocytes. Put plainly: In vitro hemolytic activity. It is filed as cell-based. The following applies: 400 μM; 30 min at 37°C. The protocol: as §3
The mark [12] stands for this setting: Leishmania amazonensis, 24 h, read-out: IC50 L (L.) amazonensis Promastigote 24 h.
Setting [13] is: Leishmania amazonensis, 48 h, read-out: IC50 L (L.) amazonensis Promastigote 48 h.
Where [14] appears, read: 48 h, MTT, value (95% CI), read-out: CC50 Peritoneal murine macrophages 48 h.
Setting [15] is: 20 mg/kg of body weight per day.
The mark [16] stands for this setting: 50 mg/kg of body weight per day.
Where [17] appears, read: 50 mg/kg of body weight per day intraperitoneally.

One may read the IC50 as the concentration that gives 50% inhibition. Consider `C[C@@H]1[C@H](O)[C@@H](C)/C=C/C=C/C=C/C=C/C=C/C=C/C=C/[C@H](O[C@@H]2O[C@H](C)[C@@H](O)[C@H](N)[C@@H]2O)C[C@@H]2O[C@](O)(C[C@@H](O)C[C@@H](O)[C@H](O)CC[C@@H](O)C[C@@H](O)CC(=O)O[C@H]1C)C[C@H](O)[C@H]2C(=O)O` [AmpB, amphotericin B, reference compound], for which the IC50 in series [1] (setting [12]) was 0.27 µM; in series [1] (setting [13]), 0.065 µM; in [2], 0.022 µM. In series [3], the hemolysis at 30 min, 100 µM was determined as 60%. This compound also displayed a hemolysis at 30 min, 200 µM in [3] of 100%.

What is called CC50 is the concentration giving 50% cytotoxicity. With `COc1ccc(C(=O)/C=C/c2ccc(OCC=C(C)C)c(OC)c2)cc1` [LLA1 (1a), (E)-3-(3-methoxy-4-((3-methylbut-2-en-1-yl)oxy)phenyl)-1-(4-methoxyphenyl)prop-2-en-1-one], the IC50 was found to be 74.9 µM in [1] (setting [12]) and 67.2 µM in series [1] (setting [13]). Moreover, in series [4] (peritoneal murine macrophages), the CC50 at 48 h was > 400 µM.

In the case of `C=CC(C)(C)c1cc(/C=C/C(=O)c2ccc(O)cc2)c(OC)cc1O` [LicoA (1), Licochalcone A], the IC50 in series [1] (setting [12]) amounted to 20.3 µM; in [1] (setting [13]), 3.88 µM; in series [5] (Leishmania infantum, Macrophage), 29.6 µM; in [9] (Leishmania infantum, 24 h, read-out: IC50 L (L.) infantum Promastigote 24 h), 41.1 µM; in [9] (Leishmania infantum, 48 h, read-out: IC50 L (L.) infantum Promastigote 48 h), 12.5 µM; in series [2], 36.8 µM. The “reduction of parasite load in the liver and the spleen” value in the series with L. (L.) donovani is > 96%. For the same compound, the “effect against Acetaminophen overdose-induced hepatotoxicity” value in series [6] is on record as “protective effect”. For the same compound, the CC50 in [7] (setting [14]) turned out to be 123 µM. Moreover, the CC50 at 48 h in series [4] (read-out: CC50 Peritoneal murine macrophages 48 h) is 123 µM. For the same compound, the “toxicity, intraperitoneal” value in series [8] (100 mg/kg in rats and 150 mg/kg in hamsters, intraperitoneal) was “did not show any toxicity”. In addition, the “signs of toxicity, oral” value in series [8] (doses higher than 1,000 mg/kg, orally once a day for 2 weeks) is “did not cause any signs of toxicity”. In addition, the “reduction of parasite burden in liver” value is on record as 15.27% in the series on L. (L.) infantum (setting [15]) and 43.67% in the series with L. (L.) infantum (setting [16]). Moreover, the figures for the “reduction of parasite burden in spleen” value with L. (L.) infantum (setting [15]) and with L. (L.) infantum (setting [16]) were 20.69% and 39.81%, respectively. Moreover, in the series on L. (L.) infantum, the survival rate amounted to 100%. Besides, the average body weight entry in the series with L. (L.) infantum is “no significant variation”. The “effect on number of amastigotes” value with amastigotes is listed as “reduction in the number of amastigotes”. In addition, the “concentration inducing hemolysis (cell shrinkage and phospholipid scrambling of the cell membrane)” value in the series with erythrocytes is recorded as “higher than 30 μM”. Besides, the “toxicity in HFF cell in vitro” value in the series on HFF cell was “low-toxicity”. For the same compound, the hepatotoxicity result in series [10] (LicoA-treated vs non-treated groups, serum aminotransaminases) is “No evidence of hepatotoxicity”. Besides, the “serum levels of aminotransaminases (ALT, AST)” value in series [10] (20 mg/kg of body weight per day intraperitoneally) and in series [10] (setting [17]) was “no significant alterations” each time. The lesion development result in the series on L. (L.) major is given as “completely prevented lesion development”. The hemolytic activity entry in series [11] was “about 30%”.

As to “(E)-3-(4-hydroxy-3-methoxyphenyl)-1-(4-hydroxyphenyl)prop-2-en-1-one [LLA2 (2a)]”, the IC50 in series [1] (24 h, read-out: IC50 L (L.) amazonensis Promastigote 24 h) is 301 µM; in [1] (48 h, read-out: IC50 L (L.) amazonensis Promastigote 48 h), 287 µM. Further, in series [7], the CC50 is > 400 µM.

For the compound “meglumine antimoniate [MA, reference compound]”, the IC50 in [5] (in peritoneal murine macrophages, value (95% CI)) was > 400 µM; in series [9] (24 h, value (95% CI), read-out: IC50 L (L.) infantum Promastigote 24 h), > 400 µM; in series [9] (48 h, value (95% CI), read-out: IC50 L (L.) infantum Promastigote 48 h), > 400 µM. Also, the “cytotoxicity at concentrations evaluated” value in [7] (12.5–400 μM, 48 h) is recorded as “no cytotoxicity”. In addition, in series [7] (setting [14]), the CC50 was > 400 µM. In the series on L. (L.) infantum (setting [16]), the “reduction of parasite burden in liver” value came out at 55.87%. In addition, the “reduction of parasite burden in spleen” value with L. (L.) infantum (setting [16]) was 63.57%. For the same compound, the survival rate in the series on L. (L.) infantum stood at 100%. Further, in the series with L. (L.) infantum, the average body weight entry is listed as “no significant variation”. For the same compound, the “serum levels of aminotransaminases (ALT, AST)” value in series [10] (setting [17]) was “significant increase”.
